Laboratory results from the supplement of paper PMC10307832.

Tests used:
Experiment in all cases: relative viability (nuclei count vs DMSO), 5 days (fraction); higher = more cells survive
[1] = system: BEN
Method in brief: (§1)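 Relative viability divides the nuclei count in treated wells by that in vehicle wells. Lung cancer cell lines were seeded in 1536-well plates, dosed by pin tool the next day, and fixed and stained after 5 days in one step with final 0.05% Triton X-100, 1% formaldehyde and 1 ug/ml Hoechst. Dosing was a single drug or a fixed anchor-drug dose plus five library-drug doses (not always all listed) in √10 steps, and values are medians of duplicate plates imaged at 4×.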

[2] = system: COR-L 105
Method in brief: as §1

[3] = system: EKVX
Method in brief: as §1

[4] = system: EMC-BAC-2
Method in brief: as §1

[5] = system: EPLC-272H
Method in brief: as §1

[6] = system: HCC-78
Method in brief: as §1

[7] = system: HCC-827
Method in brief: as §1

[8] = system: LK-2
Method in brief: as §1

[9] = system: LOU-NH91
Method in brief: as §1

[10] = system: LU99A
Method in brief: as §1

[11] = system: NCI-H1437
Method in brief: as §1

[12] = system: NCI-H1648
Method in brief: as §1

[13] = system: NCI-H1650
Method in brief: as §1

[14] = system: NCI-H1734
Method in brief: as §1

[15] = system: NCI-H1792
Method in brief: as §1

[16] = system: NCI-H2023
Method in brief: as §1

[17] = system: NCI-H2085
Method in brief: as §1

[18] = system: NCI-H358
Method in brief: as §1

[19] = system: NCI-H522
Method in brief: as §1

[20] = system: NCI-H647
Method in brief: as §1

[21] = system: NCI-H650
Method in brief: as §1

[22] = system: SK-LU-1
Method in brief: as §1

[23] = system: SW 900
Method in brief: as §1

[24] = system: UMC-11
Method in brief: as §1

## Oc1nc(-c2ccc(C(F)(F)F)cc2)nc2c1CSCC2 [XAV939] + Nc1ncn([C@H]2C[C@H](O)[C@@H](CO)O2)c(=O)n1 [Decitabine] (partner 2 µM)
[1]; first compound 0.08 µM
  relative viability: 0.73
[1]; first compound 0.253 µM
  relative viability: 0.72
[1]; first compound 0.8 µM
  relative viability: 0.763
[1]; first compound 2.53 µM
  relative viability: 0.597
[2]; first compound 0.08 µM
  relative viability: 0.719
[2]; first compound 0.253 µM
  relative viability: 0.551
[2]; first compound 0.8 µM
  relative viability: 0.587
[2]; first compound 2.53 µM
  relative viability: 0.563
[3]; first compound 0.08 µM
  relative viability: 0.329
[3]; first compound 0.253 µM
  relative viability: 0.336
[3]; first compound 0.8 µM
  relative viability: 0.356
[3]; first compound 2.53 µM
  relative viability: 0.262
[4]; first compound 0.08 µM
  relative viability: 1.04
[4]; first compound 0.253 µM
  relative viability: 0.935
[4]; first compound 0.8 µM
  relative viability: 0.884
[4]; first compound 2.53 µM
  relative viability: 0.721
[5]; first compound 0.08 µM
  relative viability: 0.357
[5]; first compound 0.253 µM
  relative viability: 0.299
[5]; first compound 0.8 µM
  relative viability: 0.385
[5]; first compound 2.53 µM
  relative viability: 0.332
[6]; first compound 0.08 µM
  relative viability: 0.679
[6]; first compound 0.253 µM
  relative viability: 0.655
[6]; first compound 0.8 µM
  relative viability: 0.732
[6]; first compound 2.53 µM
  relative viability: 0.642
[7]; first compound 0.08 µM
  relative viability: 0.327
[7]; first compound 0.253 µM
  relative viability: 0.269
[7]; first compound 0.8 µM
  relative viability: 0.321
[7]; first compound 2.53 µM
  relative viability: 0.254
[8]; first compound 0.08 µM
  relative viability: 0.263
[8]; first compound 0.253 µM
  relative viability: 0.322
[8]; first compound 0.8 µM
  relative viability: 0.318
[8]; first compound 2.53 µM
  relative viability: 0.189
[9]; first compound 0.08 µM
  relative viability: 0.806
[9]; first compound 0.253 µM
  relative viability: 0.75
[9]; first compound 0.8 µM
  relative viability: 0.819
[9]; first compound 2.53 µM
  relative viability: 0.801
[10]; first compound 0.08 µM
  relative viability: 0.986
[10]; first compound 0.253 µM
  relative viability: 0.725
[10]; first compound 0.8 µM
  relative viability: 0.807
[10]; first compound 2.53 µM
  relative viability: 0.921
[11]; first compound 0.08 µM
  relative viability: 0.626
[11]; first compound 0.253 µM
  relative viability: 0.478
[11]; first compound 0.8 µM
  relative viability: 0.539
[11]; first compound 2.53 µM
  relative viability: 0.431
[12]; first compound 0.253 µM
  relative viability: 0.423
[12]; first compound 0.8 µM
  relative viability: 0.386
[12]; first compound 2.53 µM
  relative viability: 0.438
[13]; first compound 0.08 µM
  relative viability: 0.407
[13]; first compound 0.253 µM
  relative viability: 0.445
[13]; first compound 0.8 µM
  relative viability: 0.361
[13]; first compound 2.53 µM
  relative viability: 0.439
[14]; first compound 0.08 µM
  relative viability: 0.489
[14]; first compound 0.253 µM
  relative viability: 0.433
[14]; first compound 0.8 µM
  relative viability: 0.494
[14]; first compound 2.53 µM
  relative viability: 0.475
[15]; first compound 0.08 µM
  relative viability: 0.604
[15]; first compound 0.253 µM
  relative viability: 0.485
[15]; first compound 0.8 µM
  relative viability: 0.503
[15]; first compound 2.53 µM
  relative viability: 0.42
[16]; first compound 0.08 µM
  relative viability: 0.207
[16]; first compound 0.253 µM
  relative viability: 0.232
[16]; first compound 0.8 µM
  relative viability: 0.212
[16]; first compound 2.53 µM
  relative viability: 0.228
[17]; first compound 0.08 µM
  relative viability: 0.536
[17]; first compound 0.253 µM
  relative viability: 0.494
[17]; first compound 0.8 µM
  relative viability: 0.537
[17]; first compound 2.53 µM
  relative viability: 0.462
[18]; first compound 0.08 µM
  relative viability: 0.219
[18]; first compound 0.253 µM
  relative viability: 0.207
[18]; first compound 0.8 µM
  relative viability: 0.235
[18]; first compound 2.53 µM
  relative viability: 0.215
[19]; first compound 0.08 µM
  relative viability: 0.629
[19]; first compound 0.253 µM
  relative viability: 0.576
[19]; first compound 0.8 µM
  relative viability: 0.723
[19]; first compound 2.53 µM
  relative viability: 0.607
[20]; first compound 0.08 µM
  relative viability: 0.393
[20]; first compound 0.253 µM
  relative viability: 0.26
[20]; first compound 0.8 µM
  relative viability: 0.283
[20]; first compound 2.53 µM
  relative viability: 0.279
[21]; first compound 0.08 µM
  relative viability: 0.286
[21]; first compound 0.253 µM
  relative viability: 0.305
[21]; first compound 0.8 µM
  relative viability: 0.33
[21]; first compound 2.53 µM
  relative viability: 0.325
[22]; first compound 0.08 µM
  relative viability: 0.665
[22]; first compound 0.253 µM
  relative viability: 0.523
[22]; first compound 0.8 µM
  relative viability: 0.652
[22]; first compound 2.53 µM
  relative viability: 0.688
[23]; first compound 0.253 µM
  relative viability: 0.454
[23]; first compound 0.8 µM
  relative viability: 0.438
[23]; first compound 2.53 µM
  relative viability: 0.428
[24]; first compound 0.08 µM
  relative viability: 0.633
[24]; first compound 0.253 µM
  relative viability: 0.616
[24]; first compound 0.8 µM
  relative viability: 0.467
[24]; first compound 2.53 µM
  relative viability: 0.26

## Oc1nc(-c2ccc(C(F)(F)F)cc2)nc2c1CSCC2 [XAV939] + O=C(c1cc(Cc2n[nH]c(=O)c3ccccc23)ccc1F)N1CCN(C(=O)C2CC2)CC1 [Olaparib] (partner 8 µM)
[1]; first compound 0.08 µM
  relative viability: 1.14
[1]; first compound 0.253 µM
  relative viability: 1.04
[1]; first compound 0.8 µM
  relative viability: 1.02
[1]; first compound 2.53 µM
  relative viability: 0.845
[2]; first compound 0.08 µM
  relative viability: 0.57
[2]; first compound 0.253 µM
  relative viability: 0.486
[2]; first compound 0.8 µM
  relative viability: 0.494
[2]; first compound 2.53 µM
  relative viability: 0.561
[3]; first compound 0.08 µM
  relative viability: 0.929
[3]; first compound 0.253 µM
  relative viability: 0.514
[3]; first compound 0.8 µM
  relative viability: 0.65
[3]; first compound 2.53 µM
  relative viability: 0.378
[4]; first compound 0.08 µM
  relative viability: 0.533
[4]; first compound 0.253 µM
  relative viability: 0.477
[4]; first compound 0.8 µM
  relative viability: 0.478
[4]; first compound 2.53 µM
  relative viability: 0.301
[5]; first compound 0.08 µM
  relative viability: 0.745
[5]; first compound 0.253 µM
  relative viability: 0.89
[5]; first compound 0.8 µM
  relative viability: 0.97
[5]; first compound 2.53 µM
  relative viability: 0.719
[6]; first compound 0.08 µM
  relative viability: 0.843
[6]; first compound 0.253 µM
  relative viability: 0.821
[6]; first compound 0.8 µM
  relative viability: 0.713
[6]; first compound 2.53 µM
  relative viability: 0.592
[7]; first compound 0.08 µM
  relative viability: 0.622
[7]; first compound 0.253 µM
  relative viability: 0.667
[7]; first compound 0.8 µM
  relative viability: 0.62
[7]; first compound 2.53 µM
  relative viability: 0.769
[8]; first compound 0.08 µM
  relative viability: 0.607
[8]; first compound 0.253 µM
  relative viability: 0.669
[8]; first compound 0.8 µM
  relative viability: 0.84
[8]; first compound 2.53 µM
  relative viability: 0.657
[9]; first compound 0.08 µM
  relative viability: 0.923
[9]; first compound 0.253 µM
  relative viability: 0.834
[9]; first compound 0.8 µM
  relative viability: 0.908
[9]; first compound 2.53 µM
  relative viability: 0.887
[10]; first compound 0.08 µM
  relative viability: 0.258
[10]; first compound 0.253 µM
  relative viability: 0.257
[10]; first compound 0.8 µM
  relative viability: 0.271
[10]; first compound 2.53 µM
  relative viability: 0.258
[11]; first compound 0.08 µM
  relative viability: 0.631
[11]; first compound 0.253 µM
  relative viability: 0.593
[11]; first compound 0.8 µM
  relative viability: 0.558
[11]; first compound 2.53 µM
  relative viability: 0.355
[12]; first compound 0.253 µM
  relative viability: 0.63
[12]; first compound 0.8 µM
  relative viability: 1.12
[12]; first compound 2.53 µM
  relative viability: 0.355
[13]; first compound 0.08 µM
  relative viability: 0.762
[13]; first compound 0.253 µM
  relative viability: 0.633
[13]; first compound 0.8 µM
  relative viability: 0.749
[13]; first compound 2.53 µM
  relative viability: 0.61
[14]; first compound 0.08 µM
  relative viability: 0.655
[14]; first compound 0.253 µM
  relative viability: 0.538
[14]; first compound 0.8 µM
  relative viability: 0.673
[14]; first compound 2.53 µM
  relative viability: 0.602
[15]; first compound 0.08 µM
  relative viability: 0.602
[15]; first compound 0.253 µM
  relative viability: 0.379
[15]; first compound 0.8 µM
  relative viability: 0.398
[15]; first compound 2.53 µM
  relative viability: 0.268
[16]; first compound 0.08 µM
  relative viability: 0.531
[16]; first compound 0.253 µM
  relative viability: 0.38
[16]; first compound 0.8 µM
  relative viability: 0.463
[16]; first compound 2.53 µM
  relative viability: 0.402
[17]; first compound 0.08 µM
  relative viability: 0.782
[17]; first compound 0.253 µM
  relative viability: 0.719
[17]; first compound 0.8 µM
  relative viability: 0.742
[17]; first compound 2.53 µM
  relative viability: 0.761
[18]; first compound 0.08 µM
  relative viability: 0.615
[18]; first compound 0.253 µM
  relative viability: 0.5
[18]; first compound 0.8 µM
  relative viability: 0.598
[18]; first compound 2.53 µM
  relative viability: 0.563
[19]; first compound 0.08 µM
  relative viability: 0.887
[19]; first compound 0.253 µM
  relative viability: 0.649
[19]; first compound 0.8 µM
  relative viability: 0.63
[19]; first compound 2.53 µM
  relative viability: 0.689
[20]; first compound 0.08 µM
  relative viability: 0.734
[20]; first compound 0.253 µM
  relative viability: 0.451
[20]; first compound 0.8 µM
  relative viability: 0.506
[20]; first compound 2.53 µM
  relative viability: 0.439
[21]; first compound 0.08 µM
  relative viability: 0.413
[21]; first compound 0.253 µM
  relative viability: 0.426
[21]; first compound 0.8 µM
  relative viability: 0.47
[21]; first compound 2.53 µM
  relative viability: 0.372
[22]; first compound 0.08 µM
  relative viability: 0.5
[22]; first compound 0.253 µM
  relative viability: 0.481
[22]; first compound 0.8 µM
  relative viability: 0.437
[22]; first compound 2.53 µM
  relative viability: 0.596
[23]; first compound 0.253 µM
  relative viability: 0.844
[23]; first compound 0.8 µM
  relative viability: 0.832
[23]; first compound 2.53 µM
  relative viability: 0.421
[24]; first compound 0.08 µM
  relative viability: 0.488
[24]; first compound 0.253 µM
  relative viability: 0.327
[24]; first compound 0.8 µM
  relative viability: 0.327
[24]; first compound 2.53 µM
  relative viability: 0.274
